# Values of other authors as cited in publication PMC12123727 (BMC Cancer, 2025).
# Assays:
# DLBCL = details: patients with DLBCL, 2/19; cited from earlier work
# r/r FL = details: patients with r/r FL, cited from earlier work
smiles,measurement,setting,value
"O=C(/C=C/c1cccc(S(=O)(=O)Nc2ccccc2)c1)NO [Belinostat, belinostat]",ORR,DLBCL,10.5%
"O=C(CCCCCCC(=O)Nc1ccccc1)NO [Vorinostat, vorinostat]",objective response rate (ORR),r/r FL; 19/39,49%
same,median PFS,r/r FL,20 months
